We go through 2 compounds from patent US20260060960A1, “GAMMA-SECRETASE INHIBITORS FOR USE IN THE TREATMENT OF INHERITED EPIDERMOLYSIS BULLOSA” (OSPEDALE PEDIATRICO BAMBINO GESU', priority 2022, published 2026).

Holding throughout (assay type): cell-based, human
For series [1], the system named is TGF-β1 secreted by RDEB-FBs. Nature of the series: TGF-β1 ELISA on conditioned media of RDEB fibroblasts. The following applies: 20 μM, 48 h; for acid-activated TGF-β1 in conditioned media: three RDEB-FB strains, mean±SD. The protocol:
Human TGF-β1 Quantikine ELISA Kit (R&D Systems, Minneapolis, MN, USA) was used to measure the amount of TGF-β1 (pg/mL) in serum-free conditioned media of three RDEB-FB strains, treated or not with PF-03084014 and DAPT at 1 or 20 μM for 48 h. DMSO-treated cells were used as controls. TGF-β1 Quantikine ELISA Kit was performed as per manufacturer's instructions. Samples were assayed in duplicate for each experimental condition. In order to detect both the latent precursor and the active form without latency-associated peptide cell supernatants were subjected to acid activation prior to be analyzed. Absorbance values were recorded at 455 nm with an Infinite F50 microplate reader (Tecan, Männedorf, Switzerland) and analyzed by employing the GraphPad Prism 8.2 version (GraphPad Software Inc., San Diego, CA, USA).
(ELISA stands for enzyme-linked immunosorbent assay.)

For series [2], the system named is primary fibroblast strains from healthy controls (NH-FBs). Nature of the series: MTT viability/proliferation assay on primary fibroblasts from healthy controls. The text has this:
3-(4,5-dimethyl-2-thiazolyl)-2,5-diphenyl-2H-tetrazolium bromide (MTT) assay showing the impact of DAPT and PF-03084014 treatment on viability and proliferation rate of three primary fibroblast strains from healthy controls (NH-FBs). Absorbance values (Abs) were converted in percentage by using the following formula: AbsDAPT or PF-03084014×100/AbsREFERENCE WELLS. Data are presented as mean±standard deviation (SD) of at least eight technical replicates per condition. Cells treated with the vehicle DMSO (Panel A), and cells analyzed 24 h after seeding (T0) (Panel B) were considered as reference wells. NH-FBs were growth in DMEM medium containing 10% fetal bovine serum (FBS). […] Based on the results, it was chosen to use GSIs at 20 μM (black arrows) as it was the minimal drug concentration inducing a reduction of cell proliferation after 24 h of treatment. (Panel C) Immunoblotting analysis showing the protein levels of the cleaved and biologically active form of NOTCH1 receptor (N1-ICD, NOTCH1 intracellular domain) in nuclear extracts of primary fibroblasts from RDEB patients (RDEB-FBs, n=2) treated for 24 h with DAPT and PF-03084014 at different doses, ranging from 0.1 to 20 μM. Cells treated with the vehicle dimethyl sulfoxide (DMSO) were used as control. The reduced nuclear localization of N1-ICD indicates Notch pathway inhibition. […] Lamin B1 (LMNB1) and glyceraldehyde-3-phosphate dehydrogenase (GAPDH) served as loading controls for the nuclear and cytoplasmic protein fractions, respectively. **P-value <0.01, ***P<0.001.
GSIs halt the processing of Notch receptor, and, in turn, play a role as indirect inhibitors of Notch signaling cascade. Following their reconstitution at 10 mM in dimethyl sulfoxide (DMSO), GSI aliquots were stored at −20° C. until use, avoiding freeze-thaw cycles. GSI treatment was performed in DMEM containing 10% FBS, unless otherwise specified. According to previous reports, RDEB-FBs were serum-starved overnight in DMEM containing BSA prior to be treated with GSIs. Cells treated with the vehicle DMSO were used as controls. GSIs were used at different concentrations ranging from 1 to 20 μM depending on the assay. […]
Proliferation rate was assessed by 3-(4,5-dimethyl-2-thiazolyl)-2,5-diphenyl-2H-tetrazolium bromide (MTT) assay, following the manufacturer's protocol. […] Thereafter, cells were lysed in DMSO to dissolve formazan crystals and absorbance values were recorded at 560 nm with an Infinite F50 microplate reader (Tecan, Mannedorf, Switzerland). Values recorded 24 h after cell seeding, before GSI stimulation (TO) were used as reference. […]

Series [3] deals with primary fibroblasts from RDEB patients (RDEB-FBs). Put plainly: MTT proliferation assay on RDEB fibroblasts. The following applies: 20 μM. The protocol:
Proliferation rate was assessed by 3-(4,5-dimethyl-2-thiazolyl)-2,5-diphenyl-2H-tetrazolium bromide (MTT) assay, following the manufacturer's protocol. In brief, three different strains of RDEB-FBs were seeded at the density of 4×10^3 cells into 96-well plates. The day after, RDEB-FBs growing in DMEM containing 10% FBS were treated with 20 μM DAPT or PF-03084014 for 24 h or 48 h. Cells treated with the vehicle DMSO were used as controls. At the selected time points, medium was replaced with MTT solution and plates were incubated in a dry incubator at 37° C. for 3 h. Thereafter, cells were lysed in DMSO to dissolve formazan crystals and absorbance values were recorded at 560 nm with an Infinite F50 microplate reader (Tecan, Mannedorf, Switzerland). Values recorded 24 h after cell seeding, before GSI stimulation (TO) were used as reference.
For orientation: Tetrazolium assays rely on reduction of a dye to a coloured formazan, in cell work by metabolically active cells.

The test system is the same in series [4]. Put plainly: Collagen lattice contraction (CLC) assay. The settings on record: for cell contractility (collagen lattice contraction) / contractility (collagen lattice contraction): RDEB-FBs, 20 μM, 48 h; for contractility (collagen lattice contraction): presence of TGF-β1 2 ng/mL. The protocol:
RDEB-FBs (5×10^5 cells) were mixed in a collagen buffer and seeded into 12-well plates as previously described. After gelation, fibroblast-populated collagen lattices were detached from the wells and left floating. RDEB-FBs were treated with 20 μM of DAPT and PF-03804014 in DMEM containing 0.1% BSA, in the presence or absence of TGF-β1 at 2 ng/mL, as contraction booster. JAG1-silenced RDEB-FBs were embedded in collagen lattices 24 h after siRNA transfection. In both cases, images were acquired with ChemiDoc™ XRS+ System (Bio-Rad, Hercules, CA, USA) at the detachment of collagen lattices from the wells (time 0, TO) and after 48 h. Gel areas were measured by ImageJ software and photos at TO were used as references.

For the compound `C[C@H](NC(=O)Cc1cc(F)cc(F)c1)C(=O)N[C@H](C(=O)OC(C)(C)C)c1ccccc1` [DAPT, N—[N-(3,5-difluorophenacetyl)-L-alanyl]-S-phenylglycine t-butyl ester], the “acid-activated TGF-β1 in conditioned media” value in series [1] was 250.4 ± 97.3 pg/mL. Moreover, the “proliferation rate (MTT)” value in series [2] (20 and 40 μM, 48 h, vs DMSO) is given as “slight but statistically significant reduction of proliferation rate”. Further, the “cell proliferation (MTT)” value in series [3] (24 and 48 h) was “didn't display variations in cell proliferation”. Also, the “cell contractility (collagen lattice contraction)” value in series [4] (absence of TGF-β1) is reported as “didn't exhibit significant variations”. The “contractility (collagen lattice contraction)” value in series [4] is “significant, although less conspicuous”.
With `CCC[C@H](N[C@H]1CCc2cc(F)cc(F)c2C1)C(=O)Nc1cn(C(C)(C)CNCC(C)(C)C)cn1` [PF-03084014, (S)-2-((S)-5,7-difluoro-1,2,3,4-tetrahydronaphthalen-3-ylamino)-N-(1-(2-methyl-1-(neopentylamino)propan-2-yl)-1H-imidazol-4-yl)pentanamide], the “reduction of TGF-β1 released in culture media” value in series [1] (vs cells treated with DMSO and DAPT) is on record as “up to 60%”. Moreover, in series [1], the “acid-activated TGF-β1 in conditioned media” value came to 99.6 ± 40.8 pg/mL. In series [2] (40 μM), the “cell viability (MTT) compared to cells before GSI treatment (T0)” value was “reduction of cell viability”. Further, the “fibroblast proliferation / cytotoxicity (MTT)” value in series [2] (5-20 μM) was “affected fibroblast proliferation in a time- and dose-dependent manner, in the absence of overt cytotoxicity”. Further, in series [2] (20 and 40 μM at 24 h, 5 and 10 μM at 48 h, vs DMSO), the “effects on proliferation rate (MTT)” value was “observed after 24 h of treatment, and became more evident after 48 h of treatment, even at low doses (5 and 10 μM)”. Moreover, in series [3] (48 h, vs untreated cells), the “proliferation rate (MTT)” value is reported as “statistically significant reduction of RDEB-FB proliferation rate”. For the same compound, the “contractile properties (collagen lattice contraction) in strain RDEB-FB1” value in series [4] (RDEB-FB1, 20 μM, absence of TGF-β1) is on record as “striking inhibition of contractile properties”. Also, the “cell contractility (collagen lattice contraction)” value in series [4] (absence of TGF-β1) is “modest but consistent in all RDEB-FB strains analyzed”. Further, the “contractility (collagen lattice contraction)” value in series [4] is on record as “marked reduction of contractility”.
